According to US12331121B2, “Efflux pump-cancer antigen multi-specific antibodies and compositions, reagents, kits and methods related thereto” (William Robert Arathoon Living Trust Dated August 29, 2016, priority 2019, dated 2025):
Like-named read-outs stand apart in the source and are kept apart here. Values belong to the compound of their own block, whether it stands above or below them.

Legend:
[1] = tested on: human red blood cells (RBCs); assay: Binding to human erythrocytes; details: FIG. 22A; in contrast to anti-CD47 5F9
[2] = tested on: multidrug resistant N6ADR cells; assay: N6ADR tumor volume in mice (Example 2, FIG. 9); assay type: in vivo; details: for effect on tumor volume with paclitaxel (chemosensitization): antibody dosed about 1-4 hrs prior to paclitaxel; for effect on tumor volume without paclitaxel: antibody on day 0, 4, 7, 11, no chemotherapeutic agent
Method: N6ADR cells were injected into a cohort of 6 mice per test group prior to administration of the indicated antibodies. The antibodies were administered once palpable tumors reached a size of about 100-150 mm^3 (about 7 days after injection of tumor cells). Antibodies were administered on day 0, day 4, day 7, and day 11. Tumor volumes were measured and are plotted. Panel A: 15D3/MRK16 monoclonal anti-MDR1 antibody. Panel B: KT14/MRK16 monoclonal anti-CD47 antibody. Panel C: Co-administration of 15D3/MRK16 monoclonal anti-MDR1 antibody and KT14/MRK16 monoclonal anti-CD47 antibody. Panel D: KbisP1.1 antibody.
The indicated antibodies were administered with or without the chemotherapeutic agent paclitaxel. Antibody was dosed about 1-4 hrs prior to Paclitaxel.

cynomolgus RBCs = assay: Binding to cynomolgus erythrocytes; details: FIG. 22B; in contrast to anti-CD47 5F9
N6/ADR cells = assay: Vincristine cytotoxicity assay; assay type: cell-based; details: Homo sapiens; Table 5; vincristine titrated with antibody at 100 μg/mL (2× final concentration); 72 hr
Method: Cytotoxicity Assays. The effect of antibodies on vincristine cytotoxicity was evaluated on N6/ADR, a doxorubicin-selected, B1-positive variant of the human acute lymphoblastic leukemia (ALL) cell line, NALM6. Cells were plated in 0.05 mL of Assay Media (RPMI-1640+10% FBS) at 5000 cells/well in white flat bottom 96-well tissue culture plates. Vincristine was prepared at 2× final assay concentration by serial dilution from 200 uM in assay media containing test antibodies or control antibodies at 100 μg/mL (2× final concentration), or valspodar, a small molecule B1 inhibitor at 7 uM (2× final concentration). An equivalent volume (0.05 mL) of the vincristine/antibody mixture was added to the N6/ADR cells in 96-well plates. The plates were then incubated at 37° C., in 5% CO2. After 72 hr plates were equilibrated to room temperature and cell viability assessed using Promega® CellTiter-Glo® Luminescent Cell Viability Assay according to the manufacturer's recommended protocol. Luminescence was measured on a Molecular Devices® FlexStation® 3 Multi-Mode Microplate Reader and data analyzed using GraphPad Prism 8.0 software.

[3] = Single dose cynomolgus monkey toxicity study; assay type: in vivo, cynomolgus monkeys (Macaca fascicularis); details: post infusion; paclitaxel 2 mg/kg
Excerpt: Fifteen cynomolgus monkeys (Macaca fascicularis) were enrolled in a single dose study to evaluate KbisP1.1 toxicity.

NALM6 cells = assay: NALM6 subcutaneous tumors in SCID-Beige mice; assay type: in vivo; details: paclitaxel 5 mg/kg and 20 mg/kg
Method: NALM6 subcutaneous tumors: Mice were randomized into three groups of five mice each—(i) Control vehicle, (ii) 5 mg/kg and (iii) 20 mg/kg of paclitaxel.

NALM6 ADR cells = tested on: NALM6 ADR cells
Excerpt: Cells: NALM6 (ATCC) and NALM6 ADR (ATCC), B cell precursor lymphoblastic leukemia cell lines used in this study. NALM6 ADR is a multidrug resistant cell line derived from NALM6 cells.
Mice: Sixty-five 5-6-weeks-old female SCID-Beige mice (Charles River) were used in this study.
Inoculation-2×10^6 cells diluted in PBS:Matrigel (1:1) were subcutaneously injected using a 27G insulin syringe into fifty anesthetized 5-6-week-old female SCID-Beige mice under sterile conditions.
NALM6 ADR subcutaneous tumors: Mice were randomized into nine groups of five mice each—(i) Control isotype IgG1 15 mg/kg, (ii) Control isotype IgG1 15 mg/kg and 5 mg/kg of paclitaxel, (iii) Control isotype IgG1 15 mg/kg and 20 mg/kg of paclitaxel, (iv) BisP1.1 15 mg/kg, (v) BisP1.1 15 mg/kg and 5 mg/kg of paclitaxel, (vi) BisP1.1 15 mg/kg and 20 mg/kg of paclitaxel (vii) Valspodar 20 mg/kg (viii) Valspodar 20 mg/kg and 5 mg/kg of paclitaxel and (ix) Valspodar 20 mg/kg and […]. Antibody, Valspodar and paclitaxel were dosed intraperitoneally twice a week for four consecutive weeks. Antibody/valspodar were injected at least 4 hours prior to paclitaxel injection. Paclitaxel preparation: Since paclitaxel is poorly soluble, a master stock of 50 mg/ml was prepared in absolute ethanol:Kolliphor (1:1). Prior to injection the stock was diluted to recommended doses of 5 mg/kg or 20 mg/kg with PBS maintaining a ratio of (1:16).
Measurements: Tumor measurements were done thrice a week using a calibrated Vernier Caliper and tumor volume calculated as per the formula ½*L*S*S where L is the long axis and s is the short axis of the tumor. Body weights were recorded before treatment started and were continuously monitored throughout the study. Animal survival was evaluated from the first day of treatment until death. To avoid suffering, mice were euthanized when turning moribund according to the above-mentioned predefined criteria: rapid weight loss, loss of ability to ambulate, labored respiration, or inability to drink or feed.
Statistics: Tumor volume and body weights were compared between different experimental groups using exact one-way analysis of variance (ANOVA). Kaplan-Meier survival curves were compared between different treatment groups using the log-rank (Mantel-Cox) test. Statistical analyses were performed using Graph Pad Prism (GraphPad, San Diego, CA, USA) software. The level of significance was set at p<0.05 for all analyses.

[4] = target: T1, PDL1 (293T cells overexpressing PDL1) (Homo sapiens, UniProt Q9NZQ7); assay: PDL1 binding using 293T cells overexpressing PDL1
T1 construct: expressed in transfected cells; host or cells: 293T
T1 sequence (Q9NZQ7 19-290): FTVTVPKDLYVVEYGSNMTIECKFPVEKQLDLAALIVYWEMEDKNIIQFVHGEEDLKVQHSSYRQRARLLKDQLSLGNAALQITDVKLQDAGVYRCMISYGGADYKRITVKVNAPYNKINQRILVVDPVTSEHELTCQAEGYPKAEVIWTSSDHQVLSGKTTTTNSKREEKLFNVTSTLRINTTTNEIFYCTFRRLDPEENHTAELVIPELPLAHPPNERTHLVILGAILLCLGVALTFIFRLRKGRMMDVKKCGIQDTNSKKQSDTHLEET

[5] = target: MDR1 (293T cells overexpressing MDR1) (Homo sapiens, UniProt P08183)
Method: Binding specificity of the mAbs, Fab and Bispecific IgG1 was tested by FACS using 293T cell lines naturally expressing CD47, 293T naïve cells overexpressing human ABCB1 target, 293T naïve cells having ABCB1 knocked down using Lentiviral RNA vectors, CD47 knock out 293T cells and CD47 knock out 293T cells overexpressing human ABCB1. […] The cells were washed three times with FACS buffer (PBS containing 0.5% BSA). Alexa647 labeled goat anti-human antibody was added as a secondary antibody, and the samples were incubated on ice for another 1 hour. Samples were washed and analyzed using a BD FACS Canto (BD Biosciences).
FACS measurement for MDR1 binding was performed as described in Example 1.

binding to cynomolgus erythrocytes (cynomolgus RBCs): does not significantly bind
Compound: 5F9/MRK16: anti-CD47 antibody with two 5F9 heavy chains and two MRK16 light chains
binding to human erythrocytes [1]: does not significantly bind | effect on tumor volume with paclitaxel (chemosensitization) [2]: not observed | effect on tumor volume without paclitaxel [2]: no significant effect on tumor volume

Compound: 15D3/MRK16: anti-MDR1 antibody with two 15D3 heavy chains and two MRK16 light chains
effect on tumor volume with paclitaxel (chemosensitization) [2]: rendered the chemoresistant N6ADR cells sensitive to paclitaxel | effect on tumor volume without paclitaxel [2]: no significant effect on tumor volume

Compound: CC[C@]1(O)C[C@H]2CN(CCc3c([nH]c4ccccc34)[C@@](C(=O)OC)(c3cc4c(cc3OC)N(C=O)[C@H]3[C@@](O)(C(=O)OC)[C@H](OC(C)=O)[C@]5(CC)C=CCN6CC[C@]43[C@@H]65)C2)C1 [Vincristine alone, vincristine]
IC50 (N6/ADR cells): 543 nM

Compound: CC(=O)O[C@H]1C(=O)[C@@]2(C)[C@H]([C@H](OC(=O)c3ccccc3)[C@]3(O)C[C@H](OC(=O)[C@H](O)[C@@H](NC(=O)c4ccccc4)c4ccccc4)C(C)=C1C3(C)C)[C@]1(OC(C)=O)CO[C@@H]1C[C@@H]2O [paclitaxel, reference compound]
erythema at the infusion site [3]: minimal erythema | tumor growth inhibition (NALM6 cells): significant (p<0.0001) tumor growth inhibition | tumor growth inhibition (NALM6 ADR cells; paclitaxel 5 mg/kg): significantly less tumor growth inhibition | tumor growth inhibition (NALM6 ADR cells; paclitaxel 20 mg/kg): modest inhibition

Compound: C/C=C/C[C@@H](C)C(=O)[C@H]1C(=O)N[C@@H](C(C)C)C(=O)N(C)CC(=O)N(C)[C@@H](CC(C)C)C(=O)N[C@@H](C(C)C)C(=O)N(C)[C@@H](CC(C)C)C(=O)N[C@@H](C)C(=O)N[C@H](C)C(=O)N(C)[C@@H](CC(C)C)C(=O)N(C)[C@@H](CC(C)C)C(=O)N(C)[C@@H](C(C)C)C(=O)N1C [valspodar, reference compound]
body weight (NALM6 ADR cells; valspodar result in combination with paclitaxel 20 mg/kg): significant reduction in body weight

EC50 [4]: 0.29 nM
Compound: atezolizumab

Compound: necitumumab
binding to MDR1 by FACS [5]: did not show significant binding
